Experimental data from ChEMBL document CHEMBL1201862, “PubChem BioAssay data set” (2004).
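All cell lines were grown in 96-well plates and treated with compound for 48 hours. GI50 marks 50% less growth.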 Active and inactive are the calls of the source. Rule as the data show it: active = GI50 up to about 1.1 µM and inactive = higher.

Key:
Assay in all cases: DTP human tumour cell line panel, 48 h
HCT-15 = system: HCT-15
TK-10 = system: TK-10
DU-145 = system: DU-145
K562 = system: K562
SNB-19 = system: SNB-19
T47D = system: T47D
HOP-62 = system: HOP-62
U-251 = system: U-251
RXF 393 = system: RXF 393
MDA-MB-435 = system: MDA-MB-435
NCI-H23 = system: NCI-H23
SN12C = system: SN12C
UO-31 = system: UO-31
OVCAR-4 = system: OVCAR-4
ACHN = system: ACHN
LOX IMVI = system: LOX IMVI
Malme-3M = system: Malme-3M
EKVX = system: EKVX
OVCAR-3 = system: OVCAR-3
CAKI-1 = system: CAKI-1
MCF7 = system: MCF7
HCT-116 = system: HCT-116
786-0 = system: 786-0
NCI-H226 = system: NCI-H226
HCC 2998 = system: HCC 2998
COLO 205 = system: COLO 205
A549 = system: A549
SR = system: SR
MOLT-4 = system: MOLT-4
SW-620 = system: SW-620
IGROV-1 = system: IGROV-1
MDA-MB-231 = system: MDA-MB-231
SF-539 = system: SF-539
HOP-92 = system: HOP-92
A498 = system: A498
M14 = system: M14
OVCAR-8 = system: OVCAR-8
SK-MEL-5 = system: SK-MEL-5
NCI-H460 = system: NCI-H460
MDA-N = system: MDA-N
OVCAR-5 = system: OVCAR-5
PC-3 = system: PC-3
NCI/ADR-RES = system: NCI/ADR-RES
UACC-62 = system: UACC-62
KM12 = system: KM12
SK-OV-3 = system: SK-OV-3
SNB-75 = system: SNB-75
SK-MEL-28 = system: SK-MEL-28
HT-29 = system: HT-29
NCI-H522 = system: NCI-H522
SF-268 = system: SF-268
HL-60 = system: HL-60
SF-295 = system: SF-295
SK-MEL-2 = system: SK-MEL-2
BT-549 = system: BT-549
UACC-257 = system: UACC-257
Hs-578T = system: Hs-578T
RPMI-8226 = system: RPMI-8226

Nc1nc(SCc2ccccc2)c2ncn(Cc3ccccc3)c2n1
GI50 (HCT-15): > 81.3 µM | GI50 (TK-10): > 100 µM (inactive) | GI50 (DU-145): > 100 µM (inactive) | GI50 (K562): > 87.3 µM (inactive) | GI50 (SNB-19): > 100 µM (inactive) | GI50 (T47D): > 47.6 µM (inactive) | GI50 (HOP-62): > 100 µM (inactive) | GI50 (U-251): > 100 µM (inactive) | GI50 (RXF 393): 62.2 µM (inactive) | GI50 (MDA-MB-435): > 71.8 µM (inactive) | GI50 (NCI-H23): > 67.8 µM (inactive) | GI50 (SN12C): > 100 µM (inactive) | GI50 (UO-31): > 100 µM (inactive) | GI50 (OVCAR-4): > 100 µM (inactive) | GI50 (ACHN): > 100 µM (inactive) | GI50 (LOX IMVI): > 100 µM (inactive) | GI50 (Malme-3M): > 57.9 µM (inactive) | GI50 (EKVX): > 100 µM (inactive) | GI50 (OVCAR-3): > 67.5 µM (inactive) | GI50 (CAKI-1): 30.1 µM (inactive) | GI50 (MCF7): > 90.8 µM (inactive) | GI50 (HCT-116): > 100 µM (inactive) | GI50 (786-0): > 100 µM (inactive) | GI50 (NCI-H226): > 100 µM (inactive) | GI50 (HCC 2998): > 100 µM (inactive) | GI50 (COLO 205): > 100 µM (inactive) | GI50 (A549): > 96.2 µM (inactive) | GI50 (SR): > 56.9 µM (inactive) | GI50 (MOLT-4): > 100 µM (inactive) | GI50 (SW-620): > 100 µM (inactive) | GI50 (IGROV-1): > 100 µM (inactive) | GI50 (MDA-MB-231): > 100 µM (inactive) | GI50 (SF-539): > 100 µM (inactive) | GI50 (HOP-92): > 85.9 µM (inactive) | GI50 (A498): > 44.9 µM (inactive) | GI50 (M14): > 100 µM (inactive) | GI50 (OVCAR-8): > 100 µM (inactive) | GI50 (SK-MEL-5): > 63 µM (inactive) | GI50 (NCI-H460): > 79.4 µM (inactive) | GI50 (MDA-N): > 100 µM (inactive) | GI50 (OVCAR-5): > 100 µM (inactive) | GI50 (PC-3): > 100 µM (inactive) | GI50 (NCI/ADR-RES): > 100 µM (inactive) | GI50 (UACC-62): > 83 µM (inactive) | GI50 (KM12): > 86.9 µM (inactive) | GI50 (SK-OV-3): > 100 µM (inactive) | GI50 (SNB-75): 35.8 µM (inactive) | GI50 (SK-MEL-28): > 100 µM (inactive) | GI50 (HT-29): > 81.8 µM (inactive) | GI50 (NCI-H522): > 60.4 µM (inactive) | GI50 (SF-268): > 84.7 µM (inactive) | GI50 (HL-60): 4.56 µM (inactive) | GI50 (SF-295): > 100 µM (inactive) | GI50 (SK-MEL-2): > 58.1 µM (inactive) | GI50 (BT-549): > 100 µM (inactive) | GI50 (UACC-257): > 71 µM (inactive) | GI50 (Hs-578T): > 100 µM (inactive) | GI50 (RPMI-8226): > 75.9 µM (inactive)
